We go through three compounds from patent US11142522B2, “Compounds, compositions and methods for cancer treatment” (THE BROAD INSTITUTE, INC., priority 2017, dated 2021).

“And” between values parts separate entries of the source, which are not always exact repeats. Identical values can stand only once. Marks after values point to notes of the source that are not given here. A value given as a limit tells only on which side of the number the result lay.

Data set [1] in a line: In vitro metabolic stability in cryopreserved human hepatocytes. Format: in vitro ADME. The settings on record: 1 μM test compound. As to the method:
Cryopreserved Hepatocytes (e.g. purchased from Celsis InVitroTechnologies) were briefly thawed, washed with 45 mL pre-warmed in in vitro GRO HT medium and centrifuged for 5 min at 50×g. The cell pellet was resuspended in 5 ml of Krebs-Henseleit […] (KHB). Cell viability was determined by trypan blue exclusion.
For the metabolic stability assay liver cells were distributed in WME containing 5% FCS to glass vials at a density of 1.0×10^6 vital cells/ml. The test compound was added to a final concentration of 1 μM. During incubation, the hepatocyte suspensions were continuously shaken at 580 rpm and aliquots were taken at 2, 8, 16, 30, 45 and 90 min, to which equal volumes of cold methanol were immediately added. Samples were frozen at −20° C. over night, after subsequently centrifuged for 15 minutes at 3000 rpm and the supernatant was analyzed with an Agilent 1290 HPLC-system with LCMS/MS detection.
The half-life of a test compound was determined from the concentration-time plot. From the half-life the intrinsic clearances were calculated. Together with the additional parameters liver blood flow, amount of liver cells in vivo and in vitro. The hepatic in vivo blood clearance (CL) and the maximal oral bioavailability (Fmax) was calculated.

The nature of data set [2]: In vivo pharmacokinetics in dogs. The settings on record: female, Beagle, dog, plasma, iv, after i.v., read-out: clearance in dogs (CLp) (converted). As to the method: For in vivo pharmacokinetic experiments test compounds were administered to non-rodents (e.g. female Beagle dogs) intravenously at doses of 0.1 to 1 mg/kg and intragastral at doses of 0.3 to 3 mg/kg formulated as solutions using solubilizers such as PEG400 in well-tolerated amounts and are usually given as short term infusion (15 min).
Blood samples were taken e.g. at 2 min, 8 min, 15 min, 30 min, 45 min, 1 h, 2 h, 4 h, 6 h, 8 h and 24 h after dosing from the vena saphena. Depending on the expected half-life additional samples were taken at later time points (e.g. 48 h, 72 h).
For pharmacokinetics after intragastral administration test compounds were given intragastral to fasted non-rodents (e.g. dogs). Blood samples were taken e.g. at 5 min, 15 min, 30 min, 45 min, 1 h, 2 h, 4 h, 6 h, 8 h and 24 h after dosing. Depending on the expected half-life additional samples were taken at later time points (e.g. 48 h, 72 h). Blood was collected into Lithium-Heparin tubes (Monovetten®, Sarstedt) and centrifuged for 15 min at 3000 rpm. […] PK parameters were calculated by non-compartmental analysis using a PK calculation software. […]
PK parameters calculated from concentration time profiles after i.g.: Cmax: Maximal plasma concentration (in mg/L); Cmaxnorm: Cmax divided by the administered dose (in kg/L); Tmax: Time point at which Cmax was observed (in h). […]

The subject of data set [3] is HeLa. Put plainly: Cell proliferation measurement (Cell Titer Glo, 72 h). As to conditions: Homo sapiens, Cervical Cancer. The format is cell-based. On the procedure: (§1) The antiproliferative activity of the compounds of the general formula (I) was examined in vitro in human cancer cells. For this purpose, 1000 cells, including HuT78 cells, 500 HeLa cells, or 500 A2058 cells, were plated in 384-well plates with appropriate growth medium and incubated at 37° C. overnight. After 24 h, the cells on the test plate were treated with the compounds of the general formula (I) as and incubated at 37° C. for 72 h. The compounds were added to the cells by means of an HP D300 digital dispenser in a 10 (or more)—step dilution series. As control, the cells were treated with vehicle (DMSO at 0.3% final concentration). After 72 h, the cells were treated with 20 µl/well of 50% CTG solution in PBS (Promega Cell Titer Glo (catalogue # G755B and G756B)) and incubated at room temperature for 10 min, and luminescence was measured by means of a VICTOR V (Perkin Elmer), in order to determine cell viability at the end of treatment. The percentage effect on cell growth and the IC50 derived therefrom were determined for each test substance using the values from untreated wells (=percent viability). The IC50 values were calculated using a 4-parameter fit.
Background: ATP-based viability assays read luminescence as a measure of living cells.

In data set [4] the test system is SKMEL3. The data set is described as above. Format: cell-based. The settings on record: Homo sapiens, SK-MEL3, SKMEL3, Melanoma. On the procedure: as §1
For data set [5], the system named is IGR37. Described as above. Format: cell-based. As to conditions: Homo sapiens, IGR-37, IGR37, Melanoma. On the procedure:
as §1

The test system of data set [6] is A549. Described as above. Format: cell-based. The settings on record: Homo sapiens, A549, Lung adenocarcinoma, printed as (inactive). On the procedure: as §1
Data set [7] deals with HeLa cells. Put plainly: HeLa cell viability assay (compound sensitivity testing). The format is cell-based. As to conditions: Homo sapiens, incubated for 48 hours. On the procedure: 1000 HeLa (DMEM), cells were plated in a 384-well plate in 40 μl of corresponding growth media supplemented with 10% Fetal Bovine Serum. 24 hours after plating, indicated compounds were added at indicated concentrations and incubated for 48 hours. Cell viability was assessed as described in Compound library screening in NCI-H1734 and A549 cell lines.

For data set [8], the target named is T1, human full length PDE3A (Homo sapiens, UniProt Q14432).
T1 construct: Sf9 cells overexpressing human full length PDE3A; purchased SB Drug Discovery, UK; host or cells: Sf9 insect cells (cell extract, not purified)
T1 sequence (Q14432 whole entry): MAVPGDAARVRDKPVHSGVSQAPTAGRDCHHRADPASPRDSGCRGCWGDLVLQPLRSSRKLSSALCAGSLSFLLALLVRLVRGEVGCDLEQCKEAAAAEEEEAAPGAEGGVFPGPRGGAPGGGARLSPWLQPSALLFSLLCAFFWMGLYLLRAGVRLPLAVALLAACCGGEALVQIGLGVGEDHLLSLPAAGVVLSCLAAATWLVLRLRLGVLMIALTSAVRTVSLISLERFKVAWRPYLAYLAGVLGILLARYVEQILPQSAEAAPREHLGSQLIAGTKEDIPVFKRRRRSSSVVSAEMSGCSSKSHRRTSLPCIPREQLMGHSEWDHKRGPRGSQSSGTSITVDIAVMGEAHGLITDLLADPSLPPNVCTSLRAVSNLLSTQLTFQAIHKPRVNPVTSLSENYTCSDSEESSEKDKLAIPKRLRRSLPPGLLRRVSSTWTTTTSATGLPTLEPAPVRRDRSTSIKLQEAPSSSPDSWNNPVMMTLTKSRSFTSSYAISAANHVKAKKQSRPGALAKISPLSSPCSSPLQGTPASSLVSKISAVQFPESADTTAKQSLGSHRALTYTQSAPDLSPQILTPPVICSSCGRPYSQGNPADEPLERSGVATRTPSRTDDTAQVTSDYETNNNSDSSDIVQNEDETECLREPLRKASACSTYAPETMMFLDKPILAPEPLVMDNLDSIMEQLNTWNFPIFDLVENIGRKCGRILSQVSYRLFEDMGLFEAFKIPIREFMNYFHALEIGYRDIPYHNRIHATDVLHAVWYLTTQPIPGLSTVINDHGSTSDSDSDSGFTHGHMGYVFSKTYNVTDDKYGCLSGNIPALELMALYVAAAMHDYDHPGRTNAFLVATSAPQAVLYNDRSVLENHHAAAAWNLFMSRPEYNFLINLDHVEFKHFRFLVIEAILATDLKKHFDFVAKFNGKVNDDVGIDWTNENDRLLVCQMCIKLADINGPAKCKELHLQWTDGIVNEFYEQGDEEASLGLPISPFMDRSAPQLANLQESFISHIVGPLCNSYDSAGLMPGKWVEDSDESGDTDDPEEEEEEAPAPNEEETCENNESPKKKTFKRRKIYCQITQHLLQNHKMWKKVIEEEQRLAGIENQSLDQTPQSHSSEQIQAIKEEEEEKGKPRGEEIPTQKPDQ
Put plainly: PDE3A enzyme inhibition, 3H-cAMP scintillation proximity assay. Format: biochemical. As to the method:
(§2) The commercially available ^3H-cAMP Scintillation Proximity Assay (SPA, Perkin Elmer) system was used for enzyme inhibition studies. For the determination of the in vitro effect of test substances on the PDE3A reactions 2 μl of the respective test compound solution in DMSO (serial dilutions) were placed in wells of microtiter plates (Isoplate-96/200W; Perkin Elmer). 50 μl of a dilution of PDE3A cell extract from Sf9 cells overexpressing human full length PDE3A (SB Drug Discovery, UK) in buffer A (50 mM Tris/HCl pH 7.5, 8.3 mM MgCl2, 1.7 mM EDTA, 0.2% BSA) was added. The dilution of the PDE3A cell extract was chosen such that the reaction kinetics was linear and less than 70% of the substrate was consumed (typical dilution 1:5000). The reaction was started by addition of 50 μl (0.025 μCi) of 1:2000 in buffer A w/o BSA diluted substrate [8-^3H] adenosine 3′, 5′-cyclic phosphate (1 μCi/μl; Perkin Elmer). After incubation at room temperature for 60 min, the reaction was stopped by addition of 25 μl of a suspension containing 18 mg/ml yttrium scintillation proximity beads (Perkin Elmer) in water. The microtiter plates were sealed and measured in a Microbeta scintillation counter (PerkinElmer Wallac). IC50 values were determined from sigmoidal curves by plotting percentage PDE3A activity vs log compound concentration.

The test system of data set [9] is PDE3A-CRISPR A2058 cells. The data set is described as follows: Dose response in A2058 cells with CRISPR knockout of PDE3A. The format is cell-based, human. As to the method:
as §1
CRISPR target sites were identified using the MIT CRISPR Design Tool (online MIT CRISPR design portal). For cloning of sgRNAs, forward and reverse oligonucleotides (oligos) were annealed, phosphorylated and ligated into BsmBI-digested pXPR_BRD001. Oligo sequences are as follows:
To produce lentivirus, 293T cells were co-transfected with pXPR_BRD001, psPAX2 and pMD2.G using calcium phosphate. Infected A2058 and HeLa cells were selected with 2 μg/ml of puromycin.

Data set [10] concerns HeLa xenograft. Put plainly: In vivo xenotransplantation model. The settings on record: Cervical cancer, 10 mg/kg 2QD p.o., study end. Set-up: species or system mice. As to the method: (§3) The anti-tumor activity of Compound 1 was examined in murine xenotransplantation models of human cancer. For this purpose, mice were implanted subcutaneously with tumor cells. At a mean tumor size of 20-40 mm^2 animals were randomized into treatment and control groups (at least n=10 animals/group) and treatment started with vehicle only or Compound 1 (formulation: 90% PEG400/10% Ethanol; application route: per os (“p.o.”), orally). The oral application volume was 10 ml/kg. In the case of twice daily treatments, the time interval between two applications per day was 6-7h. The tumor size and the body weight were determined at least weekly. The tumor area was detected by means of an electronic caliper [length (mm)×width (mm)]. The experiment was ended when the tumors of the vehicle control reached the pre-determined ethical endpoint based on German and European animal welfare regulations. In vivo anti-tumor efficacy is presented as T/C ratio at study end (Treatment/Control; mean tumor area or weight of treatment group/mean tumor area or weight of control group) in Table 7. A compound having a T/C below 0.5 is defined as active (i.e., effective). Statistical analysis was assessed using SigmaStat software. A one-way analysis of variance was performed and differences to the control were compared by a pair-wise comparison procedure (Dunn's method).

For data set [11], the system named is A2058 xenograft. Put plainly: In vivo xenotransplantation model. Set-up: species or system mice. The settings on record: A2058, Melanoma, 40 mg/kg 2QD p.o. On the procedure:
as §3

The subject of data set [12] is SK-MEL3 xenograft. The data set is described as follows: In vivo xenotransplantation model. Set-up: species or system mice. As to conditions: SK-MEL3, Melanoma, 40 mg/kg 2QD p.o. On the procedure:
as §3

In data set [13] the test system is IGR-37 xenograft. Put plainly: In vivo xenotransplantation model. The settings on record: IGR-37, Melanoma, 40 mg/kg 2QD p.o. More on the design: species or system mice. As to the method:
as §3

The test system of data set [14] is xenograft models of human tumors. The data set is described as follows: Murine xenotransplantation models of human cancer (overall). Format: in vivo, mice. The settings on record: monotherapy, p.o., different xenograft models. On the procedure:
as §3

Data set [15] addresses T2, human full length PDE3B (Homo sapiens, UniProt Q13370).
T2 construct: Sf9 cells overexpressing human full length PDE3B; purchased SB Drug Discovery, UK; host or cells: Sf9 insect cells (cell extract, not purified)
Put plainly: PDE3B enzyme inhibition, 3H-cAMP scintillation proximity assay. Format: biochemical. On the procedure: as §2, with “PDE3B” for “PDE3A”, “1:6000).” for “1:5000).”
On the technique in general: In a scintillation proximity assay essentially only radioactivity close to the scintillant gives light.

T2 sequence (Q13370 whole entry): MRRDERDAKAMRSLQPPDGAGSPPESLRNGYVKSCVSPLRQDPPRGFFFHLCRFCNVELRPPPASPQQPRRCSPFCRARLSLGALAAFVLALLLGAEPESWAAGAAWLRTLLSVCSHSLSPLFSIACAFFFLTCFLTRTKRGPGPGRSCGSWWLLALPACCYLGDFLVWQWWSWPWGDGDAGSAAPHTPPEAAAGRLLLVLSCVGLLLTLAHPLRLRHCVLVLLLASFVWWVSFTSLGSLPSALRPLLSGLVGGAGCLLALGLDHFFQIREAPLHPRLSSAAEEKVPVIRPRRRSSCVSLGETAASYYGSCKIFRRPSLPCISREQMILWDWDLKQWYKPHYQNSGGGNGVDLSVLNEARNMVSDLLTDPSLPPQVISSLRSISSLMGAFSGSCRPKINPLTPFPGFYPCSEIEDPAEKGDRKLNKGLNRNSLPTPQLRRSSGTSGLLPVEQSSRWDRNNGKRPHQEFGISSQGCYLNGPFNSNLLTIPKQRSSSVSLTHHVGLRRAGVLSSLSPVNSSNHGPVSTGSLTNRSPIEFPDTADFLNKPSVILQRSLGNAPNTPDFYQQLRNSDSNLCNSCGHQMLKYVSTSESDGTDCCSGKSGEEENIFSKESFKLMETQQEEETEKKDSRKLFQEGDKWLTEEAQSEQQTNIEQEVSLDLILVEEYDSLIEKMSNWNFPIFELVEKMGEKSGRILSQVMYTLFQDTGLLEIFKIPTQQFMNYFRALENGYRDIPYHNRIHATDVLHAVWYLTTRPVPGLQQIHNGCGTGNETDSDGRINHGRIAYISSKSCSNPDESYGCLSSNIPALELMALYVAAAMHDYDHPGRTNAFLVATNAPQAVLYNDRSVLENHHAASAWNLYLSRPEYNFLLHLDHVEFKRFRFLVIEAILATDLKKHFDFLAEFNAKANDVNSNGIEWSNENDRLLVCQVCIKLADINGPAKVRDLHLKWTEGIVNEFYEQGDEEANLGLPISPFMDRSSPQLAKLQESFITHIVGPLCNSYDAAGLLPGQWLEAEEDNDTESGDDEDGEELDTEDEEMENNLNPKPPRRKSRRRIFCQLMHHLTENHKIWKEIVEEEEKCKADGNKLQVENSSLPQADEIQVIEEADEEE

As usually defined, the clearance is the rate of elimination divided by the concentration. Consider `C[C@@H]1CC(=O)NN=C1c1ccc(N2CCOCC2)c(F)c1` [(5R)-6-[3-fluoro-4-(morpholin-4-yl)phenyl]-5-methyl-4,5-dihydropyridazin-3(2H)-one, reference compound], for which, in data set [1], the “predicted maximal oral bioavailability (Fmax)” value was 49%. Besides, the clearance in data set [2] was 28.3 mL/min/kg.

Broadly, the IC50 is the concentration needed to halve the response being measured. Read a low IC50 as inhibition by little substance. The EC50 is the concentration giving half of the maximal effect. Read a high EC50 as a need for much substance. Turning to `C[C@@H]1CC(=O)NN=C1c1cc(F)c(N2CCOCC2)c(F)c1` [Compound 1, (5R)-6-[3,5-difluoro-4-(morpholin-4-yl)phenyl]-5-methyl-4,5-dihydropyridazin-3(2H)-one], the IC50 in data set [3] was 0.852 nM; in [4], 1.01 nM; in data set [5], 2.19 nM; in data set [6] it was more than 600 nM; in [8], 5 nM and 4.6 nM. The “predicted maximal oral bioavailability (Fmax)” value in [1] is 66%. The compound also displayed a 50% effective concentration (EC50) in data set [7] of 1.1 nM. The “response to cytotoxic effects” value was “lack of response” in data set [9] (ectopic expression of GFP); “re-sensitized” in [9] (ectopic expression of PDE3B); “restores sensitivity” in [9] (ectopic expression of PDE3B, listed as compound 1). Also, the “T/C (mean tumor area of treatment versus control)” value in data set [10] is given as 0.01a)*. For the same compound, the results for the “T/C (mean final tumor weight of treatment versus control)” value in [11], in data set [12] and in data set [13] were 0.07b)*, 0.05b)* and 0.11b)*, respectively. Also, the anti-tumor efficacy result in data set [14] is reported as “potent anti-tumor efficacy”. Further, the clearance in [2] was 12.8 mL/min/kg.

With `C[C@@H]1CC(=O)NN=C1c1cc(Cl)c(N2CCOCC2)c(Cl)c1` [Compound 2, 6-[3,5-dichloro-4-(morpholin-4-yl)phenyl]-5-methyl-4,5-dihydropyridazin-3(2H)-one], the IC50 in [15] came out at 11 nM; in data set [8], 4 nM. The compound also came in with an EC50 in data set [7] of 1.9 nM.
